Results published in patent US20080261931A1, “Method and Means of Preventing and Treating Sleep Disordered Breathing” (Cereu-Science AB, priority 2005, published 2008).

Columns and labels:
[1] = tested on: patient with obstructive sleep apnea; assay: Repeated dosing, multiple medication study with calcium acamprosate and a weight reducing agent (sibutramine); polysomnographic investigation; type: in vivo, human
Protocol: The patient had recently been started on sibutramine (Reductil® capsules, 15 mg once daily) for weight loss. A follow-up sleep investigation (investigation 2) was performed 126 days later when the patient presented a BMI of 31.8. The AHI at this occasion was 19. Calcium acamprosate therapy was started on 333 mg three times per day orally (Campral® tablets) and increased to twice 333 mg three times per day after two weeks. At the end of this treatment period of four weeks (investigation 3) the BMI was marginally changed compared with investigation 2 (31.6) but AHI had decreased to 9.

OSA patient = assay: Repeated dosing study with calcium acamprosate in an OSA patient (polysomnographic recording); type: in vivo, human
Excerpt: A study of repeated calcium acamprosate dosing was undertaken in a patient with a BMI of 32.2. This patient had not consumed any alcohol during the 3 months proceeding the current medication period. The patient suffered from moderate OSA (as determined by an AH index in excess of 35 during previous clinical 8-channel overnight monitoring studies). The contribution from central apneas was low and constituted 5% of obstructive events, respectively. A baseline polysomnographic recording (standard sleep montage, nasal pressure recording) was undertaken at baseline and calcium acamprosate therapy was started on 333 mg three times per day orally (Campral® tablets) with an increase to 2 times 333 mg three times per day after two weeks. Key parameters (indices) were recorded at first dosing and after daily dosing for three weeks (Table).

[2] = pending dosage, route of administration, and dosing scheme; extended in renal impairment; cited from earlier work
[3] = Week 0, investigation 1 (admission), recently started on sibutramine 15 mg once daily
[4] = Week 18, investigation 2 (126 days later), sibutramine 15 mg once daily
[5] = Week 3 of oral calcium acamprosate, Week 0 baseline 3

CC(C)CC(N(C)C)C1(c2ccc(Cl)cc2)CCC1 (stereo not drawn) [Sibutramine, sibutramine]
AHI (apnea/hypopnea index, number of obstructive apneic/hypopneic events per hour of sleep) [1, 3]: 30 events per hour of sleep
BMI (body mass index) [1, 3]: 33.2 kg/m^2
AHI (apnea/hypopnea index, number of obstructive apneic/hypopneic events per hour of sleep) [1, 4]: 19 events per hour of sleep
BMI (body mass index) [1, 4]: 31.8 kg/m^2

CC(=O)NCCCS(=O)(=O)O [calcium acamprosate]
Apnea reducing effect in a patient with sleep apnea ([1]; added to sibutramine): potent apnea reducing effect
Effect of calcium acamprosate in comparison with that obtained by the weight reducing agent ([1]; combined with sibutramine): additive
CSAI (central sleep apnea index, number of central apneic events per hour of sleep) (OSA patient; [5]): 2 events per hour of sleep
Sat <90%/hr (number of apneic/hypopneic episodes per hour of sleep with an oxygen saturation below 90%) (OSA patient; [5]): 1 episodes per hour of sleep
AI (apnea index, number of obstructive apneic events per hour of sleep) (OSA patient; Week 3 of oral calcium acamprosate, Week 0 baseline 18): 7 events per hour of sleep
HI (hypopnea index, number of obstructive hypopneic events per hour of sleep) (OSA patient; Week 3 of oral calcium acamprosate, Week 0 baseline 22): 9 events per hour of sleep
AHI (apnea/hypopnea index, number of obstructive apneic/hypopneic events per hour of sleep) (OSA patient; Week 3 of oral calcium acamprosate, Week 0 baseline 40): 16 events per hour of sleep
MinSat (lowest oxygen saturation value recorded during the period of sleep) (OSA patient; Week 3 of oral calcium acamprosate, Week 0 baseline 86): 91
Number of central and mixed events (OSA patient; after calcium acamprosate, polysomnography): seemed to decrease in proportion to the number of obstructive events
Daytime sleepiness (patient-reported) (OSA patient; already after one week): reduction in daytime sleepiness
Snoring (patient-reported) (OSA patient; early after introduction of the medication): notable reduction in snoring
Apnea reducing effect in sleep apnea (OSA patient; obstructive and seemingly central events, maintained over the entire study period): potent apnea reducing effect
Side effects (OSA patient; three-week study, one patient): No significant side effects
Half-life in plasma [2]: 15 to 30 h
